# Assay results as given in publication PMC4514850, “A Novel TGR5 Activator WB403 Promotes GLP-1 Secretion and Preserves Pancreatic β-Cells in Type 2 Diabetic Mice” (PLoS ONE, 2015).
# Entries after “also recorded” stand apart in the source; their conditions may differ.
# What was measured:
# [1] = system: db/db mice; test: pancreas histology (H&E, IHC) of treated db/db mice; assay type: in vivo
# Procedure: (§1) Analysis of islet cell mass was performed using conventional methods. In brief, mice were sacrificed by cervical dislocation. The body part of the pancreas was rapidly excised, fixed in 10% neutral buffered formalin solution for 24 h and embedded in paraffin, then sectioned at 5 μm ready for hematoxylin and eosin (H&E) staining and immunohistochemistry staining (IHC). The latter was carried out using rabbit anti-insulin polyclonal antibody (Cat. no. 4590, 1:600) and rabbit anti-glucagon monoclonal antibody (Cat. no. 8233s, 1:200) from Cell Signaling Technology.
# (§2) Fig 5 WB403 preserved the mass of pancreatic β-cells and normal distribution of α and β-cells. (A) H&E staining of pancreas from db/db mice, and statistical result. Islets were sized by the Image J analysis software on alternated pancreatic sections spaced each by 100 μm. (B) Immunohistochemical analysis of pancreatic sections by anti-insulin antibody or anti-glucagon antibody. (C) H&E staining of pancreas from HFD/STZ mice, and statistical result. Results are representative islets from each group. 1–5 in the column graph on the right represents normal mice, diabetic mice treated with vehicle, WB403 50 mg/kg, WB403 100 mg/kg, sitagliptin 100 mg/kg respectively (n = 5). *p<0.05, **p<0.01, ***p<0.001 vs. diabetes-vehicle group.
# [2] = system: primary enterocytes; test: active GLP-1 secretion in primary enterocytes; assay type: cell-based; settings: Fig 1G
# Procedure: (§3) Endocrine differentiation was induced by seeding NCI-H716 cells in plates coated with Matrigel (Becton Dickinson). Cells were washed with RPMI-1640 medium without FBS and incubated in the same medium containing indicated compounds at 10 μmol/l. The condition medium was collected after 30 min. GLP-1 secretion in MIN6 or primary enterocytes was conducted similarly. To isolate primary enterocytes, ileum or colon was cut into 2 cm length, rinsed by PBS (pH7.2∼7.4) before dispersed in 10 mmol/l EDTA/PBS (pH7.4) for 15 min at room temperature, followed by pipetting up and down. Enterocytes were collected by filtration through a 70 μm cell strainer. To study the effect of WB403 on GLP-1 secretion in vivo, mice in group of three were fasted overnight and orally received 0, 50, 100 mg/kg of WB403 dispersed in 0.5% CMC with a DPP-4 inhibitor (5 mg/kg). There were 5 animals in each group. 2 g/kg glucose was administrated 30 min later and blood was collected 10 min after glucose challenge.
# (§4) The GLP-1 (active) ELISA kit was purchased from Millipore, and insulin ELISA kit was from Mercodia. For quantitative determination of cAMP, a competitive enzyme immunoassay kit from R&D system was used. All immunoassays were performed according to manufacturers’ instructions.
# [3] = system: NCI-H716 cells; test: active GLP-1 secretion in NCI-H716 cells; assay type: cell-based, human; settings: 10 μmol/l, 30 min
# Procedure: as §3, §4
# [4] = system: HFD/STZ mice; test: pancreas histology (H&E) of treated HFD/STZ mice; assay type: in vivo; settings: after 8-week treatment
# Procedure: as §1, §2
# [5] = molecular target: T1, hGPR40 (Homo sapiens, UniProt O14842); test: GPR40-dependent calcium mobilization in 293-GPR40 stable cells; assay type: cell-based; settings: 5, 10, 50 μmol/l
# T1 construct: expressed in transfected cells
# T1 sequence (O14842 whole entry): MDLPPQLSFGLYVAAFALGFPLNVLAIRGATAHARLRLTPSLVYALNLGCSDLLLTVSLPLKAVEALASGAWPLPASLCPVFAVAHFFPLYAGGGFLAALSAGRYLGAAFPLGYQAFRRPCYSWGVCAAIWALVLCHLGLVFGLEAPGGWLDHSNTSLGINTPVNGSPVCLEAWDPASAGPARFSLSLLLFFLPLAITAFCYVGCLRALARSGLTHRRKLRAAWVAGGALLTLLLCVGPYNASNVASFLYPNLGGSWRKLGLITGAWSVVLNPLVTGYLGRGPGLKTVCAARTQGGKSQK
# Procedure: (§5) For human TGR5 luciferase (luc) assay, 293T cells were co-transfected with pCRE-luc, pTGR5 (kind gift from Prof. Johan Auwerx, Ecole Polytechnique Fédérale de Lausanne, Lausanne, Switzerland) and pRenilla (Promega, USA). WB403 was added 5 h later. Cells were harvested after 16 h and subjected to luciferase analysis on Lumistar Optima chemiluminescent detector (BMG labtech, Germany). For cAMP testing, 293T cells transiently transfected with pTGR5 or pGPR119 (GeneCopoeia, USA) were washed by FBS-free DMEM, and stimulated with WB403 in FBS-free DMEM containing 3-isobutyl-1-methyl-xanthine (IBMX, Sigma). Cell lysates were collected 30 min later and used for cAMP ELISA assay. FLIPR Calcium 5 assay kit (Molecular Devices, USA) was used for calcium mobilization assay. 293-GPR40 stable cells (kindly provided by Prof. Naiming Zhou of Zhejiang University, Hanzhou, China) or 293 cells transient transfected with GPR120 were seeded at 50,000 cells per well in black-walled clear-bottomed 96-well plates (Costar). An equal volume of loading buffer containing Fluo 4-AM was added the following day and cells were incubated for 1 h before stimulated with compounds. Increase of the intracellular Ca^2+ concentration was monitored by Flexstation 3 system (Molecular Devices, USA).
# (§6) Fig 6 Effect of WB403 on GPCRs related to GLP-1 secretion. (A) GPCR expression in human NCI-H716 and mouse MIN6 cells. […]
# [6] = system: ICR mice; test: 7-day acute toxicity test in ICR mice; settings: 6000 mg/kg group after 7-day acute toxicity test
# [7] = molecular target: T2, hGPR120 (Homo sapiens, UniProt Q5NUL3); test: GPR120-dependent calcium mobilization in transfected 293 cells; assay type: cell-based; settings: 10 or 100 μmol/l
# T2 construct: expressed in transfected cells; host or cells: 293 cells, transient transfection with a human GPR120 expression vector
# T2 sequence (Q5NUL3 1-361): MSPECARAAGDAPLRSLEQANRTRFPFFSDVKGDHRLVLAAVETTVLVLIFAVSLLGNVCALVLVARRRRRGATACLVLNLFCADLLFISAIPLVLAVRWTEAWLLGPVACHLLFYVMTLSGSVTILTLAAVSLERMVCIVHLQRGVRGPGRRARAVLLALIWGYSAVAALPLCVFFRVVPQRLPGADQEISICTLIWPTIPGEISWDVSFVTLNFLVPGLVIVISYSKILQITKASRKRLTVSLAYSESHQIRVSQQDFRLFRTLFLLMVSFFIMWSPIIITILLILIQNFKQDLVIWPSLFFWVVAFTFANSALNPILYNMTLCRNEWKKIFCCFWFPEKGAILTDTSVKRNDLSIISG
# Procedure: as §5, §6
structure (smiles),measurement,setting,value
"CCc1cc(-c2nc(C)c(COCc3ccc(Br)cc3)s2)ccn1 [WB403, 4-(5-((4-bromobenzyloxy)-methyl)-4-methylthiazol-2-yl)-2-ethylpyridine]",islet area vs vehicle,"[1]; H&E, after 4-week treatment","bigger islet area as compared to the vehicle mice, though no significant difference was found"
same,α-cell and β-cell distribution in islets,[1]; IHC anti-insulin / anti-glucagon,significantly reduced α-cell in the islet core area and restored the normal cell distribution pattern
same,GLP-1 stimulation in primary enterocytes,[2],outstanding effect in GLP-1 stimulation
same,GLP-1 stimulation in NCI-H716 cells,[3],much higher GLP-1 stimulation capacity; also recorded: outstanding effect in GLP-1 stimulation
same,islet area,[4],restored islet area but did not expand it beyond that of normal mice
same,hGPR40-Ca2+ activation (calcium mobilization),[5],neither did it exhibit significant effect; also recorded: no significant effect
same,signs of toxicity in tissue sections (H&E),[6],did not show obvious signs of toxicity
same,hGPR120-Ca2+ activation (calcium mobilization),[7],neither did it exhibit significant effect; also recorded: no significant effect
